# Results taken from patent publication US20080227655A1, “Assessment of effect of an agent on a human biological condition using rodent gene expression panels” (priority 2006, published 2008).
# Several values for one entry are separate records, joined by “and”; a condition that tells them apart may be missing. Equal entries are not always repeated.
# Tested on: custom murine 40-gene Precision Profile for Rheumatoid Arthritis, whole blood
# Assay: KRN (K/BxN) serum transfer induced arthritis model, whole blood gene expression by QPCR, vehicle or dexamethasone treatment
# Assay type: in vivo, female BALB/c mice
# Description: Whole blood gene expression changes were evaluated in vehicle control and drug-treated murine subjects across two murine models of arthritis according to the following arthritis models:
# KRN Transgenic Mouse (K/B×N): K/B×N serum from transgenic mouse used to induce arthritis in female BALB/c mice (n=54). Collagen Induced Arthritis (CIA): Bovine type II collagen used to induce arthritis in male DBA/1 mice (n=54).
# In addition, naïve, untreated animal groups at baseline and terminal day were included to control for potential age-related changes in gene expression over the extended study periods. Animal groups, time-points, and treatment schedules are summarized in Tables 20A and 20B, respectively.
# Whole blood samples from animals were collected by retro-orbital bleed at selected time-points in accordance with the arthritis study schemas described in […], and transferred into sample collection tubes containing a 1.5× lysis solution and RPMI. Samples were processed into total RNA and cDNA. […] It was anticipated from these murine models would provide a better understanding of the relevant molecular response of arthritis induction and their potential correlation to the human disease condition.
# Normal murine subject reference values (represented as normalized Ct or ΔCt values) were established for male DBA/1 mice (n=6 for the CIA study arm) and female BALB/c mice (n=6 for the KRN study arm). In both arms of the study, gene expression response of normal (naïve, non-immunized and untreated) murine subjects were evaluated in groups of 6 each at day 0 and day 60 for the CIA study arm, and at day 0 and day 21 for the KRN study arm (see Tables 20A and 20B).
# Gene expression responses for the arthritis-induced murine model were evaluated for untreated mice at day 3 and vehicle-treated mice at days 7, 14 and 21 to characterize disease progression.
# [1] = KRN Day 7, Dex-treated, group Average
# [2] = KRN Day 7, Dex-treated, individual murine subject, listed as Dex
# [3] = KRN Day 7 Dex, group Average, whole blood
# [4] = KRN Day 7 Dex, individual mouse, whole blood, listed as Dex
# [5] = KRN Day 14, Dex-treated, group Average
# [6] = KRN Day 14, Dex-treated, individual murine subject
smiles,measurement,setting,value
C[C@@H]1C[C@H]2[C@@H]3CCC4=CC(=O)C=C[C@]4(C)[C@@]3(F)[C@@H](O)C[C@]2(C)[C@@]1(O)C(=O)CO [Dexamethasone],Normalized CT Value (Delta CT) IL1RAP_M,[1],18.33
same,Normalized CT Value (Delta CT) IL1RN—M,[1],17.22
same,Normalized CT Value (Delta CT) IL6_M,[1],25.38
same,Normalized CT Value (Delta CT) JUN_M,[1],18.89
same,Normalized CT Value (Delta CT) MEF2C—M,[1],18.74
same,Normalized CT Value (Delta CT) MMP9—M,[1],13.84
same,Normalized CT Value (Delta CT) NFKB1—M,[1],15.89
same,Normalized CT Value (Delta CT) PADI4—M,[1],18.34
same,Normalized CT Value (Delta CT) PLA2G7—M,[1],14.34
same,Normalized CT Value (Delta CT) PTPRC_M,[1],13.18
same,Normalized CT Value (Delta CT) PTX3_M,[1],25.34
same,Normalized CT Value (Delta CT) SERPINE1_M,[1],19.43
same,Normalized CT Value (Delta CT) TGFB1_M,[1],14.97
same,Normalized CT Value (Delta CT) TIMP1_M,[1],24.84
same,Normalized CT Value (Delta CT) TLR2_M,[1],17.04
same,Normalized CT Value (Delta CT) TLR4_M,[1],17.74
same,Normalized CT Value (Delta CT) TNFSF5—M,[1],19.10
same,Normalized CT Value (Delta CT) TNF_M,[1],19.04
same,Normalized CT Value (Delta CT) VEGF_M,[1],20.01
same,Normalized CT Value (Delta CT) IL1RAP_M,[2],18.35 and 18.23 and 18.52 and 17.82 and 18.87 and 18.20
same,Normalized CT Value (Delta CT) IL1RN—M,[2],17.09 and 17.55 and 17.42 and 16.65 and 17.60 and 17.00
same,Normalized CT Value (Delta CT) IL6_M,[2],25.25 and 25.61 and 25.41 and 25.23 and 25.30 and 25.45
same,Normalized CT Value (Delta CT) JUN_M,[2],18.66 and 18.44 and 19.15 and 18.37 and 19.81 and 18.91
same,Normalized CT Value (Delta CT) MEF2C—M,[2],19.10 and 17.75 and 19.18 and 18.50 and 19.03 and 18.87
same,Normalized CT Value (Delta CT) MMP9—M,[2],13.85 and 13.83
same,Normalized CT Value (Delta CT) NFKB1—M,[2],16.06 and 14.93 and 16.25 and 15.43 and 16.52 and 16.16
same,Normalized CT Value (Delta CT) PADI4—M,[2],18.44 and 18.48 and 18.77 and 17.63 and 18.63 and 18.10
same,Normalized CT Value (Delta CT) PLA2G7—M,[2],14.36 and 13.77 and 14.74 and 13.71 and 14.94 and 14.53
same,Normalized CT Value (Delta CT) PTPRC_M,[2],13.36 and 12.55 and 13.38 and 12.76 and 13.68 and 13.33
same,Normalized CT Value (Delta CT) PTX3_M,[2],25.27 and 25.26 and 25.48 and 25.42 and 25.11 and 25.50
same,Normalized CT Value (Delta CT) SERPINE1_M,[2],19.43 and 18.99 and 19.66 and 19.03 and 19.81 and 19.67
same,Normalized CT Value (Delta CT) TGFB1_M,[2],15.24 and 14.22 and 15.34 and 14.62 and 15.36 and 15.02
same,Normalized CT Value (Delta CT) TIMP1_M,[2],24.76 and 24.74 and 24.73 and 24.34 and 25.09 and 25.40
same,Normalized CT Value (Delta CT) TLR2_M,[2],17.41 and 16.20 and 17.63 and 16.31 and 17.86 and 16.84
same,Normalized CT Value (Delta CT) TLR4_M,[2],17.64 and 17.44 and 18.32 and 16.84 and 18.23 and 17.96
same,Normalized CT Value (Delta CT) TNFSF5—M,[2],19.49 and 18.16 and 19.15 and 18.68 and 19.51 and 19.59
same,Normalized CT Value (Delta CT) TNF_M,[2],19.01 and 18.04 and 19.79 and 18.91 and 19.32 and 19.14
same,Normalized CT Value (Delta CT) VEGF_M,[2],20.04 and 20.59 and 20.09 and 19.19 and 20.31 and 19.85
same,ABCA1_M Normalized CT Value (Delta CT),[3],17.55
same,APAF1_M Normalized CT Value (Delta CT),[3],18.58
same,CASP1_M Normalized CT Value (Delta CT),[3],17.59
same,CASP3_M Normalized CT Value (Delta CT),[3],17.32
same,CCR3_M Normalized CT Value (Delta CT),[3],18.72
same,CD3Z_M Normalized CT Value (Delta CT),[3],16.52
same,CD8A_M Normalized CT Value (Delta CT),[3],17.53
same,CD14_M Normalized CT Value (Delta CT),[3],19.08
same,CD86_M Normalized CT Value (Delta CT),[3],21.94
same,CSPG2_M Normalized CT Value (Delta CT),[3],18.69
same,F3_M Normalized CT Value (Delta CT),[3],22.96
same,HMOX1_M Normalized CT Value (Delta CT),[3],17.15
same,HSPA1A—M Normalized CT Value (Delta CT),[3],21.13
same,ICAM1—M Normalized CT Value (Delta CT),[3],18.39
same,IFI16—M Normalized CT Value (Delta CT),[3],16.29
same,IL1B_M Normalized CT Value (Delta CT),[3],13.94
same,IL10_M Normalized CT Value (Delta CT),[3],25.42
same,ABCA1_M Normalized CT Value (Delta CT),[4],18.22 and 16.54 and 17.90 and 16.93 and 18.24 and 17.49
same,APAF1_M Normalized CT Value (Delta CT),[4],18.85 and 18.10 and 18.95 and 18.00 and 19.01 and 18.59
same,ARG2_M Normalized CT Value (Delta CT),[4],17.02 and 17.06 and 17.28 and 16.20 and 17.35 and 16.48
same,CASP1_M Normalized CT Value (Delta CT),[4],17.64 and 16.61 and 18.07 and 17.26 and 18.15 and 17.79
same,CASP3_M Normalized CT Value (Delta CT),[4],17.09 (2×) and 17.18 and 17.10 and 17.91 and 17.54
same,CCR3_M Normalized CT Value (Delta CT),[4],18.09 and 18.62 and 18.24 and 18.86 and 18.96 and 19.54
same,CD3Z_M Normalized CT Value (Delta CT),[4],16.64 and 15.65 and 16.81 and 16.13 and 16.77 and 17.10
same,CD8A_M Normalized CT Value (Delta CT),[4],17.59 and 17.17 and 17.84 and 17.11 and 17.75 and 17.73
same,CD14_M Normalized CT Value (Delta CT),[4],19.53 and 18.14 and 19.42 and 18.23 and 20.06 and 19.13
same,CD86_M Normalized CT Value (Delta CT),[4],22.58 and 20.83 and 22.75 and 21.71 and 22.21 and 21.57
same,CSPG2_M Normalized CT Value (Delta CT),[4],19.41 and 17.60 and 19.56 and 17.94 and 19.13 and 18.51
same,F3_M Normalized CT Value (Delta CT),[4],22.15 and 23.54 and 24.16 and 21.10 and 25.46 and 21.36
same,HMOX1_M Normalized CT Value (Delta CT),[4],17.27 and 16.34 and 17.85 and 15.97 and 18.08 and 17.40
same,HSPA1A—M Normalized CT Value (Delta CT),[4],21.03 and 20.92 and 21.32 and 20.88 and 21.99 and 20.62
same,ICAM1—M Normalized CT Value (Delta CT),[4],18.70 and 17.80 and 18.96 and 18.10 and 18.69 and 18.08
same,IFI16—M Normalized CT Value (Delta CT),[4],16.35 and 14.96 and 17.17 and 16.15 and 16.73 and 16.40
same,IL1B_M Normalized CT Value (Delta CT),[4],14.33 and 13.94 and 14.24 and 13.43 and 14.32
same,IL10_M Normalized CT Value (Delta CT),[4],25.39 and 25.60 and 25.53 and 25.18 and 25.34 and 25.45
same,Normalized CT Value (Delta CT) IL1RAP_M,[5],18.59
same,Normalized CT Value (Delta CT) IL1RN—M,[5],17.70
same,Normalized CT Value (Delta CT) IL6_M,[5],25.48
same,Normalized CT Value (Delta CT) JUN_M,[5],19.67
same,Normalized CT Value (Delta CT) MEF2C—M,[5],20.33
same,Normalized CT Value (Delta CT) MMP9—M,[5],14.45
same,Normalized CT Value (Delta CT) NFKB1—M,[5],17.29
same,Normalized CT Value (Delta CT) PADI4—M,[5],18.79
same,Normalized CT Value (Delta CT) PLA2G7—M,[5],15.21
same,Normalized CT Value (Delta CT) PTPRC_M,[6],14.30
same,Normalized CT Value (Delta CT) PTX3_M,[6],25.29
same,Normalized CT Value (Delta CT) SERPINE1_M,[6],19.63
same,Normalized CT Value (Delta CT) TGFB1_M,[6],16.04
same,Normalized CT Value (Delta CT) TIMP1_M,[6],25.27
same,Normalized CT Value (Delta CT) TLR2_M,[6],18.52
